Consider one cell line from the supplement of paper PMC10307832.

Assay in all cases: relative viability (nuclei count vs DMSO), 5 days (fraction); higher = more cells survive
Compound in the assay “XMD8-85 + Olaparib”: CN1CCN(CC1)C2=CC(=C(C=C2)NC3=NC=C4C(=N3)N(C5=CC=CC=C5C(=O)N4C)C)OC [XMD8-85] + O=C(c1cc(Cc2n[nH]c(=O)c3ccccc23)ccc1F)N1CCN(C(=O)C2CC2)CC1 [Olaparib] (partner 8 µM)
A digest of the protocol:
(§1)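 Relative viability was taken as the ratio of nuclei in treated wells to nuclei in vehicle wells. Lung cancer cell lines in 1536-well plates received compounds by pin tool one day after seeding, either one drug alone or a fixed anchor-drug dose plus five library-drug doses (not always all listed) in √10 steps. Nuclei were counted on 4× images after 5 days of treatment, and values are medians of duplicate plates.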

Compound in the assay “4EGI-1 + Dasatinib”: O=C(O)C(Cc1ccccc1[N+](=O)[O-])=NNc1nc(-c2ccc(Cl)c(Cl)c2)cs1 (mixture of isomers) [4EGI-1] + Cc1nc(Nc2ncc(C(=O)Nc3c(C)cccc3Cl)s2)cc(N2CCN(CCO)CC2)n1 [Dasatinib] (partner 0.075 µM)
In short, it runs like this: as §1

Compound in the assay “4EGI-1 + Phenformin”: O=C(O)C(Cc1ccccc1[N+](=O)[O-])=NNc1nc(-c2ccc(Cl)c(Cl)c2)cs1 (mixture of isomers) [4EGI-1] + N=C(N)NC(=N)NCCc1ccccc1 [Phenformin] (partner 250 µM)
In short, it runs like this:
as §1

Compound in the assay “4EGI-1 + Pemetrexed”: O=C(O)C(Cc1ccccc1[N+](=O)[O-])=NNc1nc(-c2ccc(Cl)c(Cl)c2)cs1 (mixture of isomers) [4EGI-1] + Nc1nc2[nH]cc(CCc3ccc(C(=O)N[C@@H](CCC(=O)O)C(=O)O)cc3)c2c(=O)[nH]1 [Pemetrexed] (partner 0.2 µM)
In short, it runs like this:
as §1

Consider NCI-H1792, for which the relative viability amounted to 0.526 in the assay with XMD8-85 + Olaparib (first compound 0.253 µM); 0.298 with XMD8-85 + Olaparib (first compound 0.8 µM); 0.284 with XMD8-85 + Olaparib (first compound 2.53 µM); 0.318 with XMD8-85 + Olaparib (first compound 8 µM); 1.03 with 4EGI-1 + Dasatinib (first compound 0.5 µM); 0.797 with 4EGI-1 + Dasatinib (first compound 1.581 µM). For the same cell line, the relative viability in the assay with 4EGI-1 + Dasatinib (first compound 5 µM) is 0.74; with 4EGI-1 + Dasatinib (first compound 15.81 µM), 0.712; with 4EGI-1 + Dasatinib (first compound 50 µM), 0.671; with 4EGI-1 + Phenformin (first compound 0.5 µM) it was 0.285; with 4EGI-1 + Phenformin (first compound 1.581 µM), 0.462; with 4EGI-1 + Phenformin (first compound 5 µM) it was 0.41. Besides, the relative viability is 0.322 in the assay with 4EGI-1 + Phenformin (first compound 15.81 µM); 0.378 with 4EGI-1 + Phenformin (first compound 50 µM); 1.05 in the assay with 4EGI-1 + Pemetrexed (first compound 0.5 µM); 0.952 with 4EGI-1 + Pemetrexed (first compound 1.581 µM); 0.833 in the assay with 4EGI-1 + Pemetrexed (first compound 5 µM); 0.841 with 4EGI-1 + Pemetrexed (first compound 15.81 µM). Also, the relative viability with 4EGI-1 + Pemetrexed (first compound 50 µM) was determined as 0.463.
